Test results published in PMC2586070 (Peptides, 2008).
Where no end group is shown, it is not given here.

Tested on: blood-brain barrier (BBB)
Type: in vivo, male CD-1 mice

Q: Which “effect on I-Ghr uptake across the BBB” value (epinephrine 40 nmol/mouse in the iv injection, 8 week old mice) does the source give for CNC[C@H](O)c1ccc(O)c(O)c1 [Epinephrine] here?
A: no effect

Q: For “I-Ghr: Human ghrelin radioactively labeled with 131I by the chloramine-T method, purified by reverse-phase HPLC (GSSFLSPEHQRVQQRKESKKPPAKLQPR; ends and bridges not checked; also: 131I radiolabel, site not given here; UniProt Q9UBU3 24-51, looked up)”, which “effect of 48 h fasting on Ki of I-Ghr vs fed animals” value (mouse, in vivo, iv) is on record?
A: arithmetic increase

Q: How did the “enhancement of I-Ghr transport across the BBB” value (triolein 7.2 mg/mouse iv with I-Ghr, 8 week old mice) turn out when triolein was run?
A: over 70%
